Data reported in PMC9861162 (Pharmaceuticals, 2022).
Entries after “also recorded” stand apart in the source; their conditions may differ.

Experiments:
CYP1A2 = target: T1, CYP1A2 (Homo sapiens, UniProt P05177); details: microsomes
T1 sequence (P05177 1-516): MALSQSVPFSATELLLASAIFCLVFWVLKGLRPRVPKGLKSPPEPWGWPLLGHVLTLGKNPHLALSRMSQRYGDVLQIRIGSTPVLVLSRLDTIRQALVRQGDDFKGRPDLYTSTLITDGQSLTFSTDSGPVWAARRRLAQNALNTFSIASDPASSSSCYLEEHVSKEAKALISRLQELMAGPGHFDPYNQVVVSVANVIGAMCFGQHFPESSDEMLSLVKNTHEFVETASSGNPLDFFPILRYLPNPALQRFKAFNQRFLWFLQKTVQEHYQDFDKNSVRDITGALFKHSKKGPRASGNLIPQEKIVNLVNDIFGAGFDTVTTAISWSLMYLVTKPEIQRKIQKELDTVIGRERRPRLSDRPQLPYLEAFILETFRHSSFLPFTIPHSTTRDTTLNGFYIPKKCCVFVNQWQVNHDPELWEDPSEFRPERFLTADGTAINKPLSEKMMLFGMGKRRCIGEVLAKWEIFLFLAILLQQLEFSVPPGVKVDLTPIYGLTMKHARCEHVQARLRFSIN
Protocol: (§1) The incubation conditions employed for each CYP450 isoform were performed, as previously described.
(§2) Buffer solution (0.1 mol/L aqueous phosphate buffer, pH 7.4, 69 µL), NADPH-regenerating solutions (10 µL solution A: 26 mmol/L NADP+, 66 mmol/L glucose-6-phosphate, and 66 mmol/L MgCl2; 2 µL solution B: 40 U/mL glucose-6-phosphate dehydrogenase in 5 mmol/L sodium citrate), and deionized water (69 µL) were added, in a total volume of 150 μL. The tubes were vortex-mixed and preincubated with continuous gentle shaking for 5 min at 37 °C in a shaking water bath. Reactions were initiated by the addition of 50 µL of HLM solution in the tubes which were gently mixed by hand and incubated with continuous gentle shaking at 37 °C. Aliquots of 200 µL ice-cold solvent (Table 1) containing IS (1 µg/mL) were added. […] The supernatants were transferred to glass autosampler vials and submitted to LC-MS/MS analysis (5 µL injection volume) to monitor the substrate metabolite formation.

CYP2C19 [1] = target: T2, CYP2C19 (Homo sapiens, UniProt P33261); details: microsomes
T2 sequence (P33261 whole entry): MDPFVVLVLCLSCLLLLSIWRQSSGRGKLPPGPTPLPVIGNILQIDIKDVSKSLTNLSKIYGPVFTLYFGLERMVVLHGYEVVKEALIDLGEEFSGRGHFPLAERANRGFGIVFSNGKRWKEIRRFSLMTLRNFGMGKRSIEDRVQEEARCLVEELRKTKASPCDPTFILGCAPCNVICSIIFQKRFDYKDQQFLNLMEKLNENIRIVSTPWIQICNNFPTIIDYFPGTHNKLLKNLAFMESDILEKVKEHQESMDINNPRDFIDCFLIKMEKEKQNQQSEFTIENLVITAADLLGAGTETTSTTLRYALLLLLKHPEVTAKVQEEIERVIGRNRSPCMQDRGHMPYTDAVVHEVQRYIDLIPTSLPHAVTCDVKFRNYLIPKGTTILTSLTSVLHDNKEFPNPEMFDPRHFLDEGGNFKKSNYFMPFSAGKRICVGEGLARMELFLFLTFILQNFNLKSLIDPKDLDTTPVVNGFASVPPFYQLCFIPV
Protocol: as §1, §2

CYP2C8 [2] = target: T3, CYP2C8 (Homo sapiens, UniProt P10632); details: microsomes
T3 sequence (P10632 1-490): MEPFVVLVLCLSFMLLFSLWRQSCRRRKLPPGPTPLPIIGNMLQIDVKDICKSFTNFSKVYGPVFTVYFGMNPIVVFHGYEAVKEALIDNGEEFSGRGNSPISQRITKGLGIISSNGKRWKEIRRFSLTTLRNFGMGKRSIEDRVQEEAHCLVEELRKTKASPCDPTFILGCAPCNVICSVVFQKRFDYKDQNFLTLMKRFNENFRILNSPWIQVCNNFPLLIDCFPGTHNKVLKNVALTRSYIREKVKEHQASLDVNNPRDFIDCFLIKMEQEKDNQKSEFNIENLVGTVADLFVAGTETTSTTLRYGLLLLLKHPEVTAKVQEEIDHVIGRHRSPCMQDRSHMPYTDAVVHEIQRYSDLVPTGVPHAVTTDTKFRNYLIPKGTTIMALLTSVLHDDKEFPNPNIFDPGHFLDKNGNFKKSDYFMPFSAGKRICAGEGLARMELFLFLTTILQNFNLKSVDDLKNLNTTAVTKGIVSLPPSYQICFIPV
Protocol: as §1, §2

CYP2D6 [3] = target: T4, CYP2D6 (Homo sapiens, UniProt P10635); details: microsomes
T4 sequence (P10635 whole entry): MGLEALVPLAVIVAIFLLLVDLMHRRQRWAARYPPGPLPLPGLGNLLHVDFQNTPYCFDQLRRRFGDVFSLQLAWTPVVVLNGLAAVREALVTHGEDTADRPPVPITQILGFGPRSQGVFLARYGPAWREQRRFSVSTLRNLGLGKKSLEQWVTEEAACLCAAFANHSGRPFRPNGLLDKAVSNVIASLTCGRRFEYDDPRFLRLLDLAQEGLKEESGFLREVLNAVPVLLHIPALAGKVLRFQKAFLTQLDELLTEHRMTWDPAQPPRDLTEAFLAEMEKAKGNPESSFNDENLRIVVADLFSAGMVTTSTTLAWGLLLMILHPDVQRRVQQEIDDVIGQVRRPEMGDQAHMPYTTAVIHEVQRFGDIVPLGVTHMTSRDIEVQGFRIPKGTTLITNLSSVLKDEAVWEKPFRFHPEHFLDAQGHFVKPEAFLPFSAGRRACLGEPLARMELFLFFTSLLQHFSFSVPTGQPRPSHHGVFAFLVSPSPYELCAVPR
Protocol: as §1, §2

CYP2A6 = target: T5, CYP2A6 (Homo sapiens, UniProt P11509); experiment: in vitro CYP450 metabolism inhibition assay in human liver microsomes, CYP2A6 (coumarin); details: microsomes
T5 sequence (P11509 1-494): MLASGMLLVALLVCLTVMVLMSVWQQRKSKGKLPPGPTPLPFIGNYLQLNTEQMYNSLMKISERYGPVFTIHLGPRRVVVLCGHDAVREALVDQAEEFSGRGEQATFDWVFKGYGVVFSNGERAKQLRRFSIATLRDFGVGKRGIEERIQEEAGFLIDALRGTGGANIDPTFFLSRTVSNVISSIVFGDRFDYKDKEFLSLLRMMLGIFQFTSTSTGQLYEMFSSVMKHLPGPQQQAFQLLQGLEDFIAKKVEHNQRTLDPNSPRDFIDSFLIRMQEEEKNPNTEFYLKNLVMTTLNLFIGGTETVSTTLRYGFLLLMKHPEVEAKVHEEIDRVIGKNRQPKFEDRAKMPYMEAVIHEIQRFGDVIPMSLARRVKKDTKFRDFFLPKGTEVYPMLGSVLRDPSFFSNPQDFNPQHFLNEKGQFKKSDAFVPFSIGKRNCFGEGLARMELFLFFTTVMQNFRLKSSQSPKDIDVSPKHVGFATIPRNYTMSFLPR
Protocol: as §1, §2

CYP3A4/5 = experiment: in vitro CYP450 metabolism inhibition assay in human liver microsomes, CYP3A (midazolam or nifedipine)
Protocol: as §1, §2

CYP2C8 [4] = target: T3, CYP2C8
Description: (§3) The Ki input values were estimated from the ratio IC50/2. Since the IC50 experiments were designed considering the substrate concentration equal to Km, the simplification of Ki as IC50/2 was considered for a competitive inhibition reaction.
(§4) The following Equation (4) was considered for the potential DDI evaluation:(4) AUCR=AUCwith inhibitor/AUCwithout inhibitor where AUCR is the area under the curve ratio, AUCwith inhibitor is AUC in the presence of the inhibitor, and AUCwithout inhibitor is AUC in the absence of the inhibitor.

CYP2C9 = CYP2C9 (Homo sapiens, UniProt P11712)
CYP2C9, sequence (P11712 whole entry): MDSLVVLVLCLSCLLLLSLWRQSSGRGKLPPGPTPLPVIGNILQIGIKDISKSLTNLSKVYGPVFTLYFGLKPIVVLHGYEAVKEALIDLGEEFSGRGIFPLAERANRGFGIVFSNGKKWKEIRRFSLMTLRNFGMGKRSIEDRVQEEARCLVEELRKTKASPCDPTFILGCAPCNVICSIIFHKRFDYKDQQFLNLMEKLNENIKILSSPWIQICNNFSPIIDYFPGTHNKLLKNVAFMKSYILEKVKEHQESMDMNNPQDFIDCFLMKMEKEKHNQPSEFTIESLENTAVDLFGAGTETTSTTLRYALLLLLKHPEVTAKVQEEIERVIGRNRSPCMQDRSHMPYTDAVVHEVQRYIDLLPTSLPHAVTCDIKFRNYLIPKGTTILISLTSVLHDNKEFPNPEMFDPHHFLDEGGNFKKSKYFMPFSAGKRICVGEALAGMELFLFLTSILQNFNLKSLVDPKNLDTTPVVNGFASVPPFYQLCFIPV
Description: as §3, §4

CYP2D6 [5] = target: T4, CYP2D6
Description: as §3, §4

CYP2C19 [6] = target: T2, CYP2C19; experiment: clinical DDI prediction, static (IVIVE) and dynamic (PBPK) models, CYP2C19
Description: as §3, §4

CYP3A4 = experiment: clinical DDI prediction, static (IVIVE) and dynamic (PBPK) models, CYP3A4; details: for FDA Classification as CYP inhibitor: higher of static and dynamic AUCR; for R1: reversible inhibition
Description: as §3, §4

[7] = design: method as in Antunes et al. [14]; details: ref Antunes et al. [14], cited from earlier work
[8] = all trials; ref [3],[4],[5]; cited from earlier work

FC(F)(F)c1ccc(COC(Cn2ccnc2)c2ccc(Cl)cc2Cl)cc1 (stereo not drawn) [dapaconazole, Dapaconazole]
IC50 (CYP1A2): 3680 nM
Ki (CYP1A2): 1840 nM
Ki (CYP2C19 [1]): 30 nM
in vitro reversible inhibition class from IC50 (CYP2C8 [2]): slightly inhibits
Ki (CYP2D6 [3]): 430 nM
IC50 (CYP2A6): 20700 nM
IC50 (CYP3A4/5; HLM, 3A4, range over midazolam and nifedipine substrates): 8 to 30 nM
IC50 (CYP3A4/5; HLM, midazolam as substrate, figure in parentheses not defined): 7.69 nM
Ki (CYP3A4/5; Ki = IC50/2, substrate midazolam): 4 nM
IC50 (CYP3A4/5; microsomes): 30.3 nM
DDI potential from Ki and R1 values (CYP2C8 [4]): low potential
R1 (CYP2C8 [4]): 1.01
DDI potential from Ki and R1 values (CYP2C9): high potential
R1 (CYP2C9): 4.43
DDI potential from Ki and R1 values (CYP2D6 [5]): high potential
R1 (CYP2D6 [5]): 1.86
DDI potential from Ki and R1 values (CYP2C19 [6]): high potential
R1 (CYP2C19 [6]; reversible inhibition, substrate S-mephenytoin): 15.14
DDI potential from Ki and R1 values (CYP3A4; CYP3A): high potential
FDA Classification as CYP inhibitor (CYP3A4; CYP3A4, substrate midazolam): Strong (AUCR ≥ 5: strong inhibitor)
FDA Classification as CYP inhibitor (CYP3A4; CYP3A4, substrate nifedipine): Strong (AUCR ≥ 5: strong inhibitor)
FDA Classification as CYP inhibitor (CYP3A4; CYP3A overall): strong inhibitor; also recorded: moderate to strong inhibition
R1 (CYP3A4; substrate midazolam): 98.26
R1 (CYP3A4; substrate nifedipine): 25.70
fu,inc ([7]; human liver microsome incubation): 0.94
CL int. mic. ([7]; human liver microsomes): 118.5 µL/min/mg
safety profile [8]: good safety profile
